{"source": "paper PMC10046961", "about": "“High-Throughput Screening Assay for Detecting Drug-Induced Changes in Synchronized Neuronal Oscillations and Potential Seizure Risk Based on Ca^2+ Fluorescence Measurements in Human Induced Pluripotent Stem Cell (hiPSC)-Derived Neuronal 2D and 3D Cultures” (Cells, 2023)", "key": {"[1]": {"system": "hiPSC-derived neurons co-cultured with human primary astrocytes in 3D", "assay": "Ca2+ transient oscillation assay (FDSS), 3D spheroids", "assay_type": "cell-based", "conditions": "60 min", "method_in_brief": "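Fura-2 fluorescence was read twice for 20 min each: a baseline 10 min after 0.04% DMSO, and again 60 min after compound addition at nominal final concentration. The 3D co-cultures (1:1 hiPSC neurons from a donor and human astrocytes, 8000 each) matured 5 weeks in BrainPhys medium after a 1-week differentiation.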"}, "[2]": {"conditions": "ref PharmaPendium, cited from earlier work"}, "[3]": {"system": "hiPSC-derived neurons co-cultured with human primary astrocytes in 2D", "assay": "Ca2+ transient oscillation assay (FDSS), 2D co-culture", "assay_type": "cell-based", "conditions": "Homo sapiens, 1 h, 60 min", "method_in_brief": "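Cultures were 10,000 CW50065 hiPSC excitatory neurons plus 2500 primary human astrocytes per well. Recordings used Cal-520 dye in HBSS/HEPES/glucose at 37 °C, with a 470/540 nm read at 2 Hz. Oscillations were stabilized with 0.04% DMSO, read for 20 min, then read again 60 min after compound addition (final DMSO 0.1%).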"}, "[4]": {"conditions": "read-out: Area under the curve - 2D Mean"}, "[5]": {"conditions": "read-out: Peak amplitude - 2D Mean"}, "[6]": {"conditions": "read-out: Peak-to-peak interval - 2D Mean"}}, "note": "Read-outs that look alike come from different tables or passages of the source."}
{"smiles": "CN(C)CCCN1c2ccccc2Sc2ccc(Cl)cc21", "note": "[Chlorpromazine]", "values": [{"measurement": "Area under the curve - 3D Mean", "setting": "[1]; 0.11 µM", "result": 128.5, "unit": "% change from baseline"}, {"measurement": "Peak Number—3D Mean", "setting": "[1]; 0.11 µM", "result": 6.5, "unit": "% change from baseline"}, {"measurement": "Peak amplitude - 3D Mean", "setting": "[1]; 0.11 µM", "result": 96.7, "unit": "% change from baseline"}, {"measurement": "Peak width - 3D Mean", "setting": "[1]; 0.11 µM", "result": 13.3, "unit": "% change from baseline"}, {"measurement": "Peak-to-peak interval - 3D Mean", "setting": "[1]; 0.11 µM", "result": 10.0, "unit": "% change from baseline"}, {"measurement": "Area under the curve - 3D Mean", "setting": "[1]; 0.33 µM", "result": 129.9, "unit": "% change from baseline"}, {"measurement": "Peak Number—3D Mean", "setting": "[1]; 0.33 µM", "result": "−2.6", "unit": "% change from baseline"}, {"measurement": "Peak amplitude - 3D Mean", "setting": "[1]; 0.33 µM", "result": 100.7, "unit": "% change from baseline"}, {"measurement": "Peak width - 3D Mean", "setting": "[1]; 0.33 µM", "result": 13.6, "unit": "% change from baseline"}, {"measurement": "Peak-to-peak interval - 3D Mean", "setting": "[1]; 0.33 µM", "result": 12.5, "unit": "% change from baseline"}, {"measurement": "Area under the curve - 3D Mean", "setting": "[1]; 1 µM", "result": 132.1, "unit": "% change from baseline"}, {"measurement": "Peak Number—3D Mean", "setting": "[1]; 1 µM", "result": 11.5, "unit": "% change from baseline"}, {"measurement": "Peak amplitude - 3D Mean", "setting": "[1]; 1 µM", "result": 102.4, "unit": "% change from baseline"}, {"measurement": "Peak width - 3D Mean", "setting": "[1]; 1 µM", "result": 13.0, "unit": "% change from baseline"}, {"measurement": "Peak-to-peak interval - 3D Mean", "setting": "[1]; 1 µM", "result": "−9.6", "unit": "% change from baseline"}, {"measurement": "Area under the curve - 3D Mean", "setting": "[1]; 3 µM", "result": 131.9, "unit": "% change from baseline"}, {"measurement": "Peak Number—3D Mean", "setting": "[1]; 3 µM", "result": "−4.8", "unit": "% change from baseline"}, {"measurement": "Peak amplitude - 3D Mean", "setting": "[1]; 3 µM", "result": 98.4, "unit": "% change from baseline"}, {"measurement": "Peak width - 3D Mean", "setting": "[1]; 3 µM", "result": 16.6, "unit": "% change from baseline"}, {"measurement": "Peak-to-peak interval - 3D Mean", "setting": "[1]; 3 µM", "result": 6.0, "unit": "% change from baseline"}, {"measurement": "Free Cmax", "setting": "[2]; Table 1, peak plasma concentration in men, free therapeutic Cmax", "result": "50 to 150", "unit": "nM"}, {"measurement": "Free Cmax", "setting": "[2]; Table 2, highest plasma concentration in humans after the therapeutic dose", "result": "50 to 150", "unit": "nM"}, {"measurement": "activation at 0.11 µM", "setting": "[3]; [4]", "result": 26.5, "unit": "%"}, {"measurement": "activation at 0.11 µM", "setting": "[3]; read-out: Peak Number—2D Mean", "result": -27, "unit": "%"}, {"measurement": "activation at 0.11 µM", "setting": "[3]; [5]", "result": 8.7, "unit": "%"}, {"measurement": "activation at 0.11 µM", "setting": "[3]; read-out: Peak width - 2D Mean", "result": 18, "unit": "%"}, {"measurement": "activation at 0.11 µM", "setting": "[3]; [6]", "result": 47.2, "unit": "%"}, {"measurement": "activation at 0.33 µM", "setting": "[3]; [4]", "result": 36, "unit": "%"}, {"measurement": "activation at 0.33 µM", "setting": "[3]; read-out: Peak Number—2D Mean", "result": -29.5, "unit": "%"}, {"measurement": "activation at 0.33 µM", "setting": "[3]; [5]", "result": 4, "unit": "%"}, {"measurement": "activation at 0.33 µM", "setting": "[3]; read-out: Peak width - 2D Mean", "result": 38.5, "unit": "%"}, {"measurement": "activation at 0.33 µM", "setting": "[3]; [6]", "result": 48, "unit": "%"}, {"measurement": "activation at 1 µM", "setting": "[3]; [4]", "result": 10.7, "unit": "%"}, {"measurement": "activation at 1 µM", "setting": "[3]; read-out: Peak Number—2D Mean", "result": -59.8, "unit": "%"}, {"measurement": "activation at 1 µM", "setting": "[3]; [5]", "result": -4.3, "unit": "%"}, {"measurement": "activation at 1 µM", "setting": "[3]; read-out: Peak width - 2D Mean", "result": 13.8, "unit": "%"}, {"measurement": "activation at 1 µM", "setting": "[3]; [6]", "result": 151, "unit": "%"}, {"measurement": "activation at 3 µM", "setting": "[3]; [4]", "result": -100, "unit": "%"}, {"measurement": "activation at 3 µM", "setting": "[3]; read-out: Peak Number—2D Mean", "result": -100, "unit": "%"}, {"measurement": "activation at 3 µM", "setting": "[3]; [5]", "result": -100, "unit": "%"}, {"measurement": "activation at 3 µM", "setting": "[3]; read-out: Peak width - 2D Mean", "result": -100, "unit": "%"}, {"measurement": "activation at 3 µM", "setting": "[3]; [6]", "result": -100, "unit": "%"}]}
